Reference: patent US11529341B2, “Bicyclic compounds as inhibitors of PD1/PD-L1 interaction/activation” (JUBILANT PRODEL LLC, priority 2018, dated 2022)

Target: T1, PD-1/PD-L1 interaction (Homo sapiens, UniProt Q9NZQ7)
T1 construct: Tag1 (undisclosed kit tag); purchased CisBio 63ADK000CPAPEG
Assay: PD-1/PD-L1 Homogenous Time-Resolved Fluorescence (HTRF) binding assay (CisBio kit)
Conditions: Biochemical PD1/PD-L1 inhibition
Outline: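 Tagged PD-L1 and PD-1 proteins preincubated with compound 15 min, then anti-Tag1-Eu3+ donor and anti-Tag2-XL665 acceptor added, 1 h at room temperature. Emission read at 665 and 620 nm; signal expressed as HTRF ratio (665/620)×10^4, loss of signal indicating blocked binding.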

T1 sequence (Q9NZQ7 19-238 limits assumed): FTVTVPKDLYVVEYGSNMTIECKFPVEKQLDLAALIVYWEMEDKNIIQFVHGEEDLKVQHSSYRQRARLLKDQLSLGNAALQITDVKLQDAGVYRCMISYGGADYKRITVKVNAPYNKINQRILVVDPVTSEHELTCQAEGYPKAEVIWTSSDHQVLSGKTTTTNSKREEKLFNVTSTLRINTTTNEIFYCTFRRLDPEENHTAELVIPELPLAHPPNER

Compound | IC50 [nM]
Cc1c(COc2cc(OCCCCC#N)c(CN3CCCC[C@H]3C(N)=O)c3c2CCC3)cccc1-c1ccccc1 [Compound 80, (S)-1-((5-(4-cyanobutoxy)-7-((2-methyl-[1,1′-biphenyl]-3-yl)methoxy)-2,3-dihydro-1H-inden-4-yl)methyl)piperidine-2-carboxamide] | > 500
Cc1c(COc2cc(OCCCCC#N)c(CN3C[C@H](O)C[C@H]3C(=O)O)c3c2CCC3)cccc1-c1ccccc1 [Compound 81, (2S,4R)-1-((5-(4-cyanobutoxy)-7-((2-methyl-[1,1′-biphenyl]-3-yl)methoxy)-2,3-dihydro-1H-inden-4-yl)methyl)-4-hydroxypyrrolidine-2-carboxylic acid] | < 100
Cc1c(COc2cc(OC[C@H]3C[C@H]3C(=O)O)c(CN3CCCC[C@H]3C(=O)O)c3c2CCC3)cccc1-c1ccccc1 [Compound 82, (S)-1-((5-(((1S,2R)-2-carboxycyclopropyl)methoxy)-7-((2-methyl-[1,1′-biphenyl]-3-yl)methoxy)-2,3-dihydro-1H-inden-4-yl)methyl)piperidine-2-carboxylic acid] | 100 to 500
CC(=O)NCCNCc1c(OC[C@H]2C[C@H]2C(=O)O)cc(OCc2cccc(-c3ccccc3)c2C)c2c1CCC2 [Compound 83, (1R,2S)-2-(((4-(((2-acetamidoethyl)amino)methyl)-7-((2-methyl-[1,1′-biphenyl]-3-yl)methoxy)-2,3-dihydro-1H-inden-5-yl)oxy)methyl)cyclopropane-1-carboxylic acid] | 100 to 500
COc1cc(OCc2cccc(-c3ccc4c(c3)OCCO4)c2C)c2c(c1CN1CCCC[C@H]1C(=O)O)CCC2 [Compound 84, (S)-1-((7-((3-(2,3-dihydrobenzo[b][1,4]dioxin-6-yl)-2-methylbenzyl)oxy)-5-methoxy-2,3-dihydro-1H-inden-4-yl)methyl)piperidine-2-carboxylic acid] | < 100
COc1cc(OCc2cccc(-c3ccc4c(c3)OCCO4)c2C)c2c(c1CN1C[C@H](O)C[C@H]1C(=O)O)CCC2 [Compound 85, (2S,4R)-1-((7-((3-(2,3-dihydrobenzo[b][1,4]dioxin-6-yl)-2-methylbenzyl)oxy)-5-methoxy-2,3-dihydro-1H-inden-4-yl)methyl)-4-hydroxypyrrolidine-2-carboxylic acid] | 100 to 500
CC(=O)NCCNCc1c(OCc2cccc(C#N)c2)cc(OCc2cccc(-c3ccccc3C)c2C)c2c1CCC2 [Compound 86, N-(2-(((5-((3-cyanobenzyl)oxy)-7-((2,2′-dimethyl-[1,1′-biphenyl]-3-yl)methoxy)-2,3-dihydro-1H-inden-4-yl)methyl)amino)ethyl)acetamide] | 100 to 500
CC(=O)NCCNCc1c(OCc2cccc(C#N)c2)cc(OCc2cccc(-c3ccc(F)cc3)c2C)c2c1CCC2 [Compound 87, N-(2-(((5-((3-cyanobenzyl)oxy)-7-((4′-fluoro-2-methyl-[1,1′-biphenyl]-3-yl)methoxy)-2,3-dihydro-1H-inden-4-yl)methyl)amino)ethyl)acetamide] | 100 to 500
Cc1c(COc2cc(OCc3cccc(C(N)=O)c3)c(CN3CCCC[C@H]3C(=O)O)c3c2CCC3)cccc1-c1ccccc1 [Compound 88, (S)-1-((5-((3-carbamoylbenzyl)oxy)-7-((2-methyl-[1,1′-biphenyl]-3-yl)methoxy)-2,3-dihydro-1H-inden-4-yl)methyl)piperidine-2-carboxylic acid] | 100 to 500
Cc1c(COc2cc(OCc3cccc(C#N)c3)c(CN)c3c2CCC3)cccc1-c1ccccc1 [Compound 89, 3-(((4-(aminomethyl)-7-((2-methyl-[1,1′-biphenyl]-3-yl)methoxy)-2,3-dihydro-1H-inden-5-yl)oxy)methyl)benzonitrile] | < 100
CC(=O)NCc1c(OCc2cccc(C#N)c2)cc(OCc2cccc(-c3ccccc3)c2C)c2c1CCC2 [Compound 90, N-((5-((3-cyanobenzyl)oxy)-7-((2-methyl-[1,1′-biphenyl]-3-yl)methoxy)-2,3-dihydro-1H-inden-4-yl)methyl)acetamide] | > 500
